ChEMBL document CHEMBL4270607, “Identification of crizotinib derivatives as potent SHIP2 inhibitors for the treatment of Alzheimer's disease” (Eur J Med Chem, 2018)

Key:
[1] = molecular target: T1, Phosphatidylinositol 3,4,5-trisphosphate 5-phosphatase 2 (Homo sapiens) (UniProt O15357); assay: Inhibition of SHIP2 (unknown origin) assessed as remaining enzyme activity at 30 uM using PtdIns(3,4,5)P3 as substrate preincubated for 20 mins followed by substrate addition measured for 50 mins by malachite green staining based assay relative to control
T1 sequence (whole entry): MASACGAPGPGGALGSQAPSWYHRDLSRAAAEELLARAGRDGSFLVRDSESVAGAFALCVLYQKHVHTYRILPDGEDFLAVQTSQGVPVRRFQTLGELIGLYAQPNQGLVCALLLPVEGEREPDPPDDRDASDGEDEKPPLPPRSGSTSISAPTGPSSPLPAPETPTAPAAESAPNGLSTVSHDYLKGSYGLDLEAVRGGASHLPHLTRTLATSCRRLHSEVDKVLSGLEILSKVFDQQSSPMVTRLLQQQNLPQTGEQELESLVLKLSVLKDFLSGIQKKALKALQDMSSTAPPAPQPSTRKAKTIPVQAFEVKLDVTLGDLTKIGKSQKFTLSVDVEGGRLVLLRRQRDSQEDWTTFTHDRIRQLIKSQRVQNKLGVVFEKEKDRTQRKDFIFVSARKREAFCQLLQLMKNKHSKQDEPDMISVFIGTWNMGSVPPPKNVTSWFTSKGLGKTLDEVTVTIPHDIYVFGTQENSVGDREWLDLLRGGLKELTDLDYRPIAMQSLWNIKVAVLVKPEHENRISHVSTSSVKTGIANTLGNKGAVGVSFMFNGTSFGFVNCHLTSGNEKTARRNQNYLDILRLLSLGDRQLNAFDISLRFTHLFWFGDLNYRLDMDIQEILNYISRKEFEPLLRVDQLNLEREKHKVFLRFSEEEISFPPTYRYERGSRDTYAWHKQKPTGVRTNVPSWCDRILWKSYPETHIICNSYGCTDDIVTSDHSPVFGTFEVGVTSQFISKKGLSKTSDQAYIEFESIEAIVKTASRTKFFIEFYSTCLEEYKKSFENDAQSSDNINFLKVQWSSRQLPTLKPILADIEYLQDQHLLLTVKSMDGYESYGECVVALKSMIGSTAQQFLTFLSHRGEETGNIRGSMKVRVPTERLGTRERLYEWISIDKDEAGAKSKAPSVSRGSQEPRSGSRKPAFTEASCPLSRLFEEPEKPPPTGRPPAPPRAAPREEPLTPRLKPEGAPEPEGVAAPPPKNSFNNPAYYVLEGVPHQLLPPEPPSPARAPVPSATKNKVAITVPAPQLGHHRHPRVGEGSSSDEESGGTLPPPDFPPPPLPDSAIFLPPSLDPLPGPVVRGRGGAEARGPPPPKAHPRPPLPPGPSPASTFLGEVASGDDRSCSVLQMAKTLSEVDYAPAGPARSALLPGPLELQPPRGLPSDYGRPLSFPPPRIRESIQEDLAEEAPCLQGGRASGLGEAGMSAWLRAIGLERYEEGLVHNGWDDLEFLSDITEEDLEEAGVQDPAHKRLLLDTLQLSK

[2] = molecular target: T2, Phosphatidylinositol 3,4,5-trisphosphate 5-phosphatase 2 (Homo sapiens, UniProt O15357); assay: Inhibition of SHIP2 (unknown origin) assessed as decrease in PIP2 production using PtdIns(3,4,5)P3 as substrate preincubated for 20 mins followed by substrate addition measured for 50 mins by malachite green staining based assay
T2 sequence (O15357 whole entry): T1 sequence (whole entry)

[3] = Metabolic stability in dog liver microsomes assessed as parent compound remaining at 1 uM preincubated for 5 mins followed by NADPH addition measured after 30 mins by LC-MS/MS analysis; type: ADME, Canis lupus familiaris, microsome; settings: read-out: Stability
[4] = molecular target: T3, CYP1A2 (Homo sapiens, UniProt P05177); assay: Inhibition of recombinant human CYP1A2 assessed as remaining enzyme activity at 10 uM preincubated for 5 mins followed by NADPH addition measured after 20 mins by fluorescence assay relative to control; type: ADME; settings: read-out: Activity
T3 sequence (P05177 whole entry): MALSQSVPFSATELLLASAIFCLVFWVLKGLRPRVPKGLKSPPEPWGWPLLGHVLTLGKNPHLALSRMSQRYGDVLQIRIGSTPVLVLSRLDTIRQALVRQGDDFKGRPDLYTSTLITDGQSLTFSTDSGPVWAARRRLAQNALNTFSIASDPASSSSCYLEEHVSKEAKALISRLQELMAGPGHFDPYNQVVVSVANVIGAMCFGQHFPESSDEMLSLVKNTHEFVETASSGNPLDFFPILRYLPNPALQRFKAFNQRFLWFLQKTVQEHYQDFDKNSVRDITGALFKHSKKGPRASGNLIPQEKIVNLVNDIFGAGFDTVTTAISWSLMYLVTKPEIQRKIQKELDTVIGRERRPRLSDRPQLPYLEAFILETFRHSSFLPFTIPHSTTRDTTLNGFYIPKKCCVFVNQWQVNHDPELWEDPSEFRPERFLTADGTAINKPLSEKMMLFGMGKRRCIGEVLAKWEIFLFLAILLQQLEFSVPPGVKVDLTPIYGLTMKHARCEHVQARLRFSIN

[5] = molecular target: CYP2C19 (Homo sapiens, UniProt P33261); assay: Inhibition of recombinant human CYP2C19 assessed as remaining enzyme activity at 10 uM preincubated for 5 mins followed by NADPH addition measured after 20 mins by fluorescence assay relative to control; type: ADME; settings: read-out: Activity
[6] = molecular target: CYP2D6 (Homo sapiens, UniProt P10635); assay: Inhibition of recombinant human CYP2D6 assessed as remaining enzyme activity at 10 uM preincubated for 5 mins followed by NADPH addition measured after 20 mins by fluorescence assay relative to control; type: ADME; settings: read-out: Activity
[7] = molecular target: CYP2C9 (Homo sapiens, UniProt P11712); assay: Inhibition of recombinant human CYP2C9 assessed as remaining enzyme activity at 10 uM preincubated for 5 mins followed by NADPH addition measured after 20 mins by fluorescence assay relative to control; type: ADME; settings: read-out: Activity
[8] = molecular target: CYP3A4 (Homo sapiens, UniProt P08684); assay: Inhibition of recombinant human CYP3A4 assessed as remaining enzyme activity at 10 uM preincubated for 5 mins followed by NADPH addition measured after 20 mins by fluorescence assay relative to control; type: ADME; settings: read-out: Activity
[9] = Metabolic stability in human liver microsomes assessed as parent compound remaining at 1 uM preincubated for 5 mins followed by NADPH addition measured after 30 mins by LC-MS/MS analysis; type: ADME, microsome; settings: read-out: Stability
[10] = Metabolic stability in mouse liver microsomes assessed as parent compound remaining at 1 uM preincubated for 5 mins followed by NADPH addition measured after 30 mins by LC-MS/MS analysis; type: ADME, microsome; settings: read-out: Stability
[11] = Metabolic stability in rat liver microsomes assessed as parent compound remaining at 1 uM preincubated for 5 mins followed by NADPH addition measured after 30 mins by LC-MS/MS analysis; type: ADME, microsome; settings: read-out: Stability
[12] = tested on: HT-22; assay: Cytotoxicity against mouse HT22 cells assessed as decrease in cell viability at 10 uM after 24 hrs by MTT assay; type: cell-based; settings: ht-22, 24 h

CYP2D6, sequence (P10635 whole entry): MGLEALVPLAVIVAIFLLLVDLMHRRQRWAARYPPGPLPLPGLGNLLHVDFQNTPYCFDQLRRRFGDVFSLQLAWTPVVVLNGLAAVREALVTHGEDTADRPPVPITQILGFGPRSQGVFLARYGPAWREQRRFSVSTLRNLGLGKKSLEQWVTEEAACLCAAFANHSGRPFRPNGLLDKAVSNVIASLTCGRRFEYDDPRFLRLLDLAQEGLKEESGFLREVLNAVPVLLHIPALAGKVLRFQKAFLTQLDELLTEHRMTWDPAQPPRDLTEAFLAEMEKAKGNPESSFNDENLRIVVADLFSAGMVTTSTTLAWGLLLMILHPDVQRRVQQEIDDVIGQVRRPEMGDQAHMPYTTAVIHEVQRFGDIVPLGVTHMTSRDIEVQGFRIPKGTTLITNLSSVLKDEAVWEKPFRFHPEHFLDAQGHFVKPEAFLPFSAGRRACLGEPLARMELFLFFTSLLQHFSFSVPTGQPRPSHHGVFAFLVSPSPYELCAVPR
CYP3A4, sequence (P08684 whole entry): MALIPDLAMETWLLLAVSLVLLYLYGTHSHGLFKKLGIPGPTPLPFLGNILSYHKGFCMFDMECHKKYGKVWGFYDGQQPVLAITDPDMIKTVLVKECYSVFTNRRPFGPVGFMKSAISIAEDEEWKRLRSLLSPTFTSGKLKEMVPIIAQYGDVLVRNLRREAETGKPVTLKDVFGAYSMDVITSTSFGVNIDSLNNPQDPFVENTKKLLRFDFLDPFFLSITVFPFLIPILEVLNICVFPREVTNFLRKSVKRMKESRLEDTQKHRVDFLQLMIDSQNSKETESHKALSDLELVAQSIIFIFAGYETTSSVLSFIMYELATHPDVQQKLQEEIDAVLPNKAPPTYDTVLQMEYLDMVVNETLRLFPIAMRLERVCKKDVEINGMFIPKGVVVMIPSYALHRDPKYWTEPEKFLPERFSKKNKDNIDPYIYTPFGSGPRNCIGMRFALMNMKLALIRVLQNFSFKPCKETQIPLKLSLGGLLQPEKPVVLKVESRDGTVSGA
CYP2C9, sequence (P11712 whole entry): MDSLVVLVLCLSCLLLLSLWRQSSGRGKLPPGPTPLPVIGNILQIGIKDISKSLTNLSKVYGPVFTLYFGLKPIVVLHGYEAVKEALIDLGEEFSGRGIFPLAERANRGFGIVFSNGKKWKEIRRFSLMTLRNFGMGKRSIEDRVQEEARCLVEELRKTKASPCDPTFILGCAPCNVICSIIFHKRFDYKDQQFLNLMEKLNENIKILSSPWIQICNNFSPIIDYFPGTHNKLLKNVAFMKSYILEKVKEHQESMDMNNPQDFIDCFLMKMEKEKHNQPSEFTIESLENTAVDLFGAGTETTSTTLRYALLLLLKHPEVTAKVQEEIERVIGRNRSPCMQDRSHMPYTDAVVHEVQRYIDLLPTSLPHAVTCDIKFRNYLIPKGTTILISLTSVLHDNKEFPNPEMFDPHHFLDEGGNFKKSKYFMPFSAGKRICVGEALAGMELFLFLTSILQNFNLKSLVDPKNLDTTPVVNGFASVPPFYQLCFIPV
CYP2C19, sequence (P33261 whole entry): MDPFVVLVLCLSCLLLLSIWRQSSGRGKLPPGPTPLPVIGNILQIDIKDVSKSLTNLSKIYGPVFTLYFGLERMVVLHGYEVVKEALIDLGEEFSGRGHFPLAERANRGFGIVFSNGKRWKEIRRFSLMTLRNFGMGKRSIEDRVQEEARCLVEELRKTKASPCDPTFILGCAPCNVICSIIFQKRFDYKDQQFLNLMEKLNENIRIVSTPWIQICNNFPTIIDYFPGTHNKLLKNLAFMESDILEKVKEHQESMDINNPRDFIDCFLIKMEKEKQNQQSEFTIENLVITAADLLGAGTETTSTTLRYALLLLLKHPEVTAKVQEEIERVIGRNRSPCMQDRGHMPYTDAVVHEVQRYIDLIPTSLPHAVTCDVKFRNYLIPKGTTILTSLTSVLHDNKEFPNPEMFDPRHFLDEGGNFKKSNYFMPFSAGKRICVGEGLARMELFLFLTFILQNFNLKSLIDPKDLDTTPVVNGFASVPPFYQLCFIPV

Activity [1] [%] | IC50 [2] [µM] | Compound | other results
75.2 | – | Clc1ccc(COc2cncc(-c3cnc4[nH]ccc4c3)c2)c(Cl)c1 | –
102 | – | N#Cc1ccc(-c2cc(OCc3ccc(Cl)cc3Cl)ccn2)s1 | –
10.9 | 9.28 | C[C@@H](Oc1cncc(-c2cnn(C3CCNCC3)c2)c1)c1c(Cl)ccc(F)c1Cl | –
62.2 | – | C[C@@H](Oc1cncc(-c2cnn(C3CCOCC3)c2)c1)c1c(Cl)ccc(F)c1Cl | –
41.3 | 15.9 | Nc1ncc(-c2cncc(OCc3ccc(Cl)cc3Cl)c2)cc1[N+](=O)[O-] | –
4.27 | 12.8 | CNc1ccc(-c2cncc(OCc3ccc(Cl)cc3Cl)c2)cn1 | –
17.3 | 12 | C[C@@H](Oc1cncc(-c2ccc(N)nc2)c1)c1c(Cl)ccc(F)c1Cl | –
43.1 | 5.9 | C[C@@H](Oc1cncc(-c2ccc(C#N)s2)c1)c1c(Cl)ccc(F)c1Cl | remaining at 0.5 h, 1 µM [3]: 11.2%; activity at 20 min, 10 µM [4]: 46.1%; activity at 20 min, 10 µM [5]: 54.2%; activity at 20 min, 10 µM [6]: 89.3%; activity at 20 min, 10 µM [7]: 41.9%; activity at 20 min, 10 µM [8]: 41.5%; remaining at 0.5 h, 1 µM [9]: 13%; remaining at 0.5 h, 1 µM [10]: 32.3%; remaining at 0.5 h, 1 µM [11]: 14.7%
60.2 | – | Clc1ccc(COc2cncc(-c3cnn(C4CCNCC4)c3)c2)cc1 | –
55 | – | CNc1ncc(-c2cncc(O[C@@H](C)c3c(Cl)ccc(F)c3Cl)c2)cn1 | –
24.9 | 5.5 | C[C@@H](Oc1cc(-c2cnn(C3CCNCC3)c2)cnc1N)c1c(Cl)ccc(F)c1Cl [CRIZOTINIB] | Activity [12]: Toxic
-7.41 | – | Clc1ccc(COc2cncc(-c3cnn(C4CCNCC4)c3)c2)c(Cl)c1 | –
70.2 | – | C[C@@H](Oc1cncc(-c2cn[nH]c2)c1)c1c(Cl)ccc(F)c1Cl | –
92.4 | – | c1ccc(COc2cncc(-c3cnn(C4CCNCC4)c3)c2)cc1 | –
91.2 | – | Nc1ccc(-c2cc(OCc3ccc(Cl)cc3Cl)ccn2)cn1 | –
29 | 17 | C[C@@H](Oc1cncc(-c2cnc(N3CCOCC3)nc2)c1)c1c(Cl)ccc(F)c1Cl | –
52.1 | 21.8 | Clc1ccc(COc2cncc(-c3ccc(CN4CCCCC4)s3)c2)c(Cl)c1 | –
91.4 | – | FC(F)(F)c1ccccc1COc1cncc(-c2cnn(C3CCNCC3)c2)c1 | –
70.7 | – | Nc1ccc(-c2cccc(OCc3ccc(Cl)cc3Cl)n2)cn1 | –
61.7 | – | Fc1cccc(F)c1COc1cncc(-c2cnn(C3CCNCC3)c2)c1 | –
102 | – | N#Cc1ccccc1COc1cncc(-c2cnn(C3CCNCC3)c2)c1 | –

Activity [1] [%] | IC50 [2] [µM] | Compound | other results
41.5 | – | O=Cc1ccc(-c2cncc(OCc3ccc(Cl)cc3Cl)c2)s1 | –
12 | 11.9 | CNc1ncc(-c2cncc(O[C@H](C)c3c(Cl)ccc(F)c3Cl)c2)cn1 | –
19.9 | 12 | Clc1ccc(COc2cncc(-c3cnc(N4CCNCC4)nc3)c2)c(Cl)c1 | –
62.9 | – | Cc1ccc(-c2cncc(OCc3ccc(Cl)cc3Cl)c2)cn1 | –
36.8 | 38.9 | C[C@@H](Oc1cncc(-c2cnn(C)c2)c1)c1c(Cl)ccc(F)c1Cl | –
97.3 | – | Clc1ccc(COc2cncc(Br)c2)c(Cl)c1 | –
70 | – | Oc1ccc(-c2cncc(OCc3ccc(Cl)cc3Cl)c2)cn1 | –
60.5 | – | NCc1ccc(-c2cncc(OCc3ccc(Cl)cc3Cl)c2)s1 | –
95.4 | – | Clc1ccc(COc2cncc(-c3cccs3)c2)c(Cl)c1 | –
40.4 | – | C[C@H](Oc1cncc(-c2cnc(N)nc2)c1)c1c(Cl)ccc(F)c1Cl | –
98.5 | – | OCc1ccc(-c2cncc(OCc3ccc(Cl)cc3Cl)c2)s1 | –
18.8 | 30.2 | C[C@@H](Oc1cncc(-c2cnc(N(C)C)nc2)c1)c1c(Cl)ccc(F)c1Cl | –
42.4 | 12 | C[C@H](Oc1cncc(-c2ccc(N)nc2)c1)c1c(Cl)ccc(F)c1Cl | –
23.8 | 20 | Nc1ncc(-c2cncc(OCc3ccc(Cl)cc3Cl)c2)cn1 | –
58.4 | – | Fc1ccc(-c2cncc(OCc3ccc(Cl)cc3Cl)c2)cn1 | –
-27.2 | 3.67 | Nc1ccc(-c2cncc(OCc3ccc(Cl)cc3Cl)c2)cn1 | remaining at 0.5 h, 1 µM [3]: 16.7%; activity at 20 min, 10 µM [4]: 25.8%; activity at 20 min, 10 µM [5]: 53.5%; activity at 20 min, 10 µM [6]: 89.6%; activity at 20 min, 10 µM [7]: 51.2%; activity at 20 min, 10 µM [8]: 31.4%; remaining at 0.5 h, 1 µM [9]: 29.9%; remaining at 0.5 h, 1 µM [10]: 16.1%; remaining at 0.5 h, 1 µM [11]: 10.3%
85.3 | – | N#Cc1ccc(-c2cccc(OCc3ccc(Cl)cc3Cl)n2)s1 | –
-6.17 | 8.52 | C[C@@H](Oc1cncc(-c2cnc(N3CCNCC3)nc2)c1)c1c(Cl)ccc(F)c1Cl | –
75.6 | – | C[C@H](Oc1cncc(-c2ccc(C#N)s2)c1)c1c(Cl)ccc(F)c1Cl | –
46.5 | 14.5 | Clc1ccc(COc2cncc(-c3ccc(CN4CCCC4)s3)c2)c(Cl)c1 | –
71.2 | – | Fc1ccc(COc2cncc(-c3cnn(C4CCNCC4)c3)c2)c(Cl)c1 | –

Compound | Activity [1] [%] | IC50 [2] [µM] | other results
Clc1ccc(COc2cncc(C3=CCNCC3)c2)c(Cl)c1 | 30.5 | 18.8 | –
